Activity calls are given as the source filed them. The rule behind the calls is not given here.
Tests used:
[1] = Concentration required for complete inhibition of relaxation of supercoiled plasmid (form I) at concentrations; format: functional
[2] = system: Ovarian cancer cell line; experiment: Clonogenic survival activity against human ovarian cancer cells (2008, C13*) cells; 0.01-10 range; format: functional, cell-based
[3] = system: Nucleic Acid; experiment: Compound was tested for the induction of DNA strand breaks at concentrations of 0.1 and 0.5 uM; Active; format: nucleic-acid assay

Activity [3]: Active
SMILES: CNC(=S)N(C)CCNc1c2ccccc2nc2ccccc12
Inhibition concentration [1]: > 25 µM | IC50 [2]: 10 nM
